Assay results as given in ChEMBL document CHEMBL1154347, “Isoflavones with unusually modified B-rings and their evaluation as antiproliferative agents” (Bioorg Med Chem Lett, 2009).

Columns and labels:
[1] = Antiproliferative activity against estrogen receptor negative human MDA-MB-436 cells
MCF7 = experiment: Antiproliferative activity against estrogen receptor expressing human MCF7 cells; assay type: functional
K562 = experiment: Antiproliferative activity against human K562 cells; assay type: functional
[2] = Antiproliferative activity against HUVEC cells; assay type: cell-based; details: human
HeLa = experiment: Cytotoxicity against human HeLa cells; assay type: functional

| Structure (SMILES) | GI50 [1] [µM] | GI50 (MCF7) [µM] | GI50 (K562) [µM] | GI50 [2] [µM] | CC50 (HeLa) [µM] |
| --- | --- | --- | --- | --- | --- |
| COc1cc(-c2coc3cc(O)ccc3c2=O)ccc1O | 75 | 42 |  |  |  |
| O=c1c(-c2cc(O)cc(O)c2)coc2cc(O)ccc12 | 169 | 73 | > 185 | > 185 | 160 |
| O=c1c2c(O)cc(O)cc2occ1[C@]1(O)CC[C@@H](O)CC1 | 147 | 75 |  |  |  |
| COc1c(O)ccc(-c2coc3cc(O)ccc3c2=O)c1O | 68 | 37 |  |  |  |
| O=c1c(-c2cc(O)cc(O)c2)coc2cc(O)cc(O)c12 | > 174 | 65 | 75 | 133 | 134 |
| O=c1c(-c2ccc(O)cc2)coc2cc(O)cc(O)c12 [GENISTEIN] | 17 | 10 |  |  |  |
| O=c1c(C2=CCCC(O)C2O)coc2cc(O)cc(O)c12 (stereo not given) | 17 | 6 | > 172 | 17 | 81 |
| O=c1c(-c2ccc(O)cc2)coc2cc(O)ccc12 [DAIDZEIN] | > 196 | 122 |  |  |  |
| O=c1c([C@]2(O)CC[C@@H](O)[C@H](O)C2)coc2cc(O)cc(O)c12 | 138 | 84 | > 162 | > 162 | > 162 |
| COc1c(O)ccc(-c2coc3cc(O)cc(O)c3c2=O)c1O | 32 | 15 | 48 | 64 | 77 |
